Source: PubChem BioAssay AID330 (DTP/NCI, 2004)
“And” between values parts separate entries of the source, which are not always exact repeats. Identical values can stand only once. Inconclusive results and toxic doses are left out. How the source made its calls: active means survival T/C of 150% or more; inactive means T/C below 125% in these data.

Test system: P388 leukemia ip, CD2F1 mice, survival T/C
Assay: NCI In Vivo Anticancer Drug Screen. Data for tumor model P388 Leukemia (intraperitoneal) in CD2F1 (CDF1) mice
Settings: endpoint: median survival time, higher = longer survival
Outline: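 Mice carrying the transplanted tumor received test compound or vehicle. Survival was recorded in each group, and the value is the treated-group measurement divided by that of the vehicle-treated control group.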

Measured: T/C

O=C1c2c(O)ccc(O)c2C(=O)c2c(NCCNCCO)ccc(NCCNCCO)c21
active: dose: 0.06 mg/kg/injection, schedule: Q01DX009 (ip), vehicle: saline 175 % of control and 208 % of control | dose: 0.06 mg/kg/injection, schedule: Q04DX003 (ip), vehicle: saline 218 % of control | dose: 0.12 mg/kg/injection, schedule: Q01DX009 (ip), vehicle: acid diluted with saline 179 % of control and 190 % of control | dose: 0.12 mg/kg/injection, schedule: Q01DX009 (ip), vehicle: other 165 % of control | dose: 0.12 mg/kg/injection, schedule: Q01DX009 (ip), vehicle: saline 200 % of control and 220 % of control | dose: 0.12 mg/kg/injection, schedule: Q04DX003 (ip), vehicle: saline 160 % of control | dose: 0.13 mg/kg/injection, schedule: Q01DX009 (ip), vehicle: acid diluted with saline 150 % of control and 176 % of control | dose: 0.2 mg/kg/injection, schedule: Q01DX009 (ip), vehicle: acid diluted with saline 250 % of control | dose: 0.2 mg/kg/injection, schedule: Q01DX009 (ip), vehicle: water 172 % of control | dose: 0.25 mg/kg/injection, schedule: Q01DX005 (ip), vehicle: acid diluted with saline 270 % of control | dose: 0.25 mg/kg/injection, schedule: Q04DX003 (ip), vehicle: saline 182 % of control | dose: 0.32 mg/kg/injection, schedule: Q01DX009 (ip), vehicle: acid diluted with saline 225 % of control | dose: 0.39 mg/kg/injection, schedule: Q01DX009 (ip), vehicle: acid diluted with saline 272 % of control | dose: 0.39 mg/kg/injection, schedule: Q01DX009 (ip), vehicle: water 245 % of control | dose: 0.5 mg/kg/injection, schedule: Q01DX005 (ip), vehicle: acid diluted with saline 270 % of control | dose: 0.5 mg/kg/injection, schedule: Q01DX009 (ip), vehicle: other 238 % of control and 333 % of control | dose: 0.5 mg/kg/injection, schedule: Q04DX003 (ip), vehicle: saline 179 % of control | dose: 0.54 mg/kg/injection, schedule: Q01DX009 (ip), vehicle: acid diluted with saline 234 % of control | dose: 0.54 mg/kg/injection, schedule: Q01DX009 (sc), vehicle: acid diluted with saline 153 % of control | dose: 0.75 mg/kg/injection, schedule: Q04DX002 (ip), vehicle: acid diluted with saline 209 % of control | dose: 0.78 mg/kg/injection, schedule: Q01DX009 (ip), vehicle: water 271 % of control | dose: 0.78 mg/kg/injection, schedule: Q04DX003 (ip), vehicle: acid diluted with saline 409 % of control | dose: 0.9 mg/kg/injection, schedule: Q01DX009 (ip), vehicle: acid diluted with saline 405 % of control | dose: 0.9 mg/kg/injection, schedule: Q01DX009 (sc), vehicle: acid diluted with saline 216 % of control | dose: 1.0 mg/kg/injection, schedule: Q01DX005 (ip), vehicle: acid diluted with saline 270 % of control | dose: 1.0 mg/kg/injection, schedule: Q04DX003 (ip), vehicle: saline 151 % of control and 188 % of control and 208 % of control | dose: 1.04 mg/kg/injection, schedule: Q04DX003 (ip), vehicle: acid diluted with saline 252 % of control | dose: 1.04 mg/kg/injection, schedule: Q04DX003 (iv), vehicle: acid diluted with saline 162 % of control | dose: 1.08 mg/kg/injection, schedule: Q01DX009 (ip), vehicle: acid diluted with saline 409 % of control | dose: 1.3 mg/kg/injection, schedule: Q04DX003 (ip), vehicle: acid diluted with saline 302 % of control | dose: 1.5 mg/kg/injection, schedule: Q01DX009 (ip), vehicle: acid diluted with saline 405 % of control | dose: 1.5 mg/kg/injection, schedule: Q01DX009 (sc), vehicle: acid diluted with saline 272 % of control | dose: 1.5 mg/kg/injection, schedule: Q04DX002 (ip), vehicle: acid diluted with saline 176 % of control and 201 % of control | dose: 1.56 mg/kg/injection, schedule: Q01DX009 (ip), vehicle: water 218 % of control | dose: 1.73 mg/kg/injection, schedule: Q04DX003 (ip), vehicle: acid diluted with saline 333 % of control | dose: 1.73 mg/kg/injection, schedule: Q04DX003 (iv), vehicle: acid diluted with saline 227 % of control | dose: 1.8 mg/kg/injection, schedule: Q01DX009 (ip), vehicle: acid diluted with saline 225 % of control | dose: 2.0 mg/kg/injection, schedule: Q01DX009 (ip), vehicle: other 207 % of control | dose: 2.0 mg/kg/injection, schedule: Q04DX003 (ip), vehicle: saline 164 % of control and 172 % of control and 207 % of control | dose: 2.5 mg/kg/injection, schedule: Q01DX009 (ip), vehicle: acid diluted with saline 180 % of control | dose: 2.88 mg/kg/injection, schedule: Q04DX003 (ip), vehicle: acid diluted with saline 333 % of control | dose: 3.0 mg/kg/injection, schedule: Q01DX001 (ip), vehicle: acid diluted with saline 333 % of control | dose: 3.0 mg/kg/injection, schedule: Q04DX002 (ip), vehicle: acid diluted with saline 260 % of control and 288 % of control | dose: 3.24 mg/kg/injection, schedule: Q01DX001 (iv), vehicle: acid diluted with saline 178 % of control | dose: 3.3 mg/kg/injection, schedule: Q01DX001 (ip), vehicle: acid diluted with saline 247 % of control | dose: 4.0 mg/kg/injection, schedule: Q01DX001 (ip), vehicle: acid diluted with saline 187 % of control | dose: 4.0 mg/kg/injection, schedule: Q04DX003 (ip), vehicle: saline 166 % of control and 223 % of control and 233 % of control | dose: 4.4 mg/kg/injection, schedule: Q01DX001 (ip), vehicle: acid diluted with saline 229 % of control | dose: 4.8 mg/kg/injection, schedule: Q04DX003 (ip), vehicle: acid diluted with saline 180 % of control | dose: 5.0 mg/kg/injection, schedule: Q01DX001 (ip), vehicle: other 250 % of control | dose: 5.4 mg/kg/injection, schedule: Q01DX001 (ip), vehicle: acid diluted with saline 405 % of control | dose: 5.4 mg/kg/injection, schedule: Q01DX001 (iv), vehicle: acid diluted with saline 270 % of control | dose: 6.0 mg/kg/injection, schedule: Q04DX002 (ip), vehicle: acid diluted with saline 192 % of control and 260 % of control | dose: 6.7 mg/kg/injection, schedule: Q01DX001 (ip), vehicle: acid diluted with saline 293 % of control | dose: 8.0 mg/kg/injection, schedule: Q01DX001 (ip), vehicle: acid diluted with saline 171 % of control | dose: 8.0 mg/kg/injection, schedule: Q01DX001 (iv), vehicle: acid diluted with saline 198 % of control | dose: 8.0 mg/kg/injection, schedule: Q04DX003 (ip), vehicle: saline 164 % of control and 232 % of control | dose: 9.0 mg/kg/injection, schedule: Q01DX001 (ip), vehicle: acid diluted with saline 261 % of control | dose: 9.0 mg/kg/injection, schedule: Q01DX001 (iv), vehicle: acid diluted with saline 405 % of control | dose: 10.0 mg/kg/injection, schedule: Q04DX003 (ip), vehicle: acid diluted with saline 180 % of control | dose: 15.0 mg/kg/injection, schedule: Q01DX001 (ip), vehicle: other 302 % of control | dose: 15.0 mg/kg/injection, schedule: Q01DX001 (iv), vehicle: acid diluted with saline 405 % of control | dose: 16.0 mg/kg/injection, schedule: Q01DX001 (ip), vehicle: acid diluted with saline 173 % of control | dose: 25.0 mg/kg/injection, schedule: Q01DX001 (ip), vehicle: acid diluted with saline 225 % of control | dose: 32.0 mg/kg/injection, schedule: Q01DX001 (ip), vehicle: acid diluted with saline 270 % of control | dose: 64.0 mg/kg/injection, schedule: Q01DX001 (ip), vehicle: acid diluted with saline 270 % of control
inactive: dose: 0.02 mg/kg/injection, schedule: Q04DX003 (ip), vehicle: saline 120 % of control | dose: 0.32 mg/kg/injection, schedule: Q01DX009 (sc), vehicle: acid diluted with saline 122 % of control | dose: 0.5 mg/kg/injection, schedule: Q01DX005 (iv), vehicle: acid diluted with saline 99 % of control | dose: 0.75 mg/kg/injection, schedule: Q04DX003 (ip), vehicle: acid diluted with saline 123 % of control | dose: 3.0 mg/kg/injection, schedule: Q01DX009 (ip), vehicle: acid diluted with saline 102 % of control | dose: 4.0 mg/kg/injection, schedule: Q01DX001 (iv), vehicle: acid diluted with saline 117 % of control | dose: 4.0 mg/kg/injection, schedule: Q01DX009 (ip), vehicle: other 99 % of control | dose: 8.0 mg/kg/injection, schedule: Q04DX003 (ip), vehicle: acid diluted with saline 107 % of control | dose: 8.0 mg/kg/injection, schedule: Q04DX003 (iv), vehicle: acid diluted with saline 99 % of control | dose: 12.0 mg/kg/injection, schedule: Q04DX002 (ip), vehicle: acid diluted with saline 118 % of control | dose: 16.0 mg/kg/injection, schedule: Q01DX001 (iv), vehicle: acid diluted with saline 101 % of control | dose: 16.0 mg/kg/injection, schedule: Q04DX003 (ip), vehicle: saline 101 % of control and 117 % of control | dose: 32.0 mg/kg/injection, schedule: Q04DX003 (ip), vehicle: saline 100 % of control | dose: 7.0 micrograms/kg/injection, schedule: Q04DX003 (ip), vehicle: saline 107 % of control | dose: 15.0 micrograms/kg/injection, schedule: Q04DX003 (ip), vehicle: saline 107 % of control | dose: 31.0 micrograms/kg/injection, schedule: Q04DX003 (ip), vehicle: saline 120 % of control
